According to patent US4980377A, “1-(aminophenyl)-2-aminopropanone derivatives” (Laboratoire L. Lafon, priority 1984, dated 1990):
Entries after “also recorded” stand apart in the source; their conditions may differ. Counter-ions that a name gives are not always drawn.

How the values were obtained:
[1] = test system: mice; test: Motility reduced by habituation to the enclosure; format: in vivo, mouse; settings: i.p.
Description: After they have stayed In the actimeters for 18 hours, (he mice (6 per dose, 12 control animals) receive CRL 41 153. They are immediately returned to their respective enclosures and, half an hour later, their motility is recorded for 30 minutes.

[2] = test system: mice; test: Spontaneous motility; format: in vivo, mouse; settings: i.p.
Description: 0.5 hour after they have received CRL 41 153, the mice (6 per dose, 12 control animals) are placed in an actimeter, where their motility is recorded for 30 minutes.

[3] = test system: mice; test: Motility reduced by hypoxic aggression; format: in vivo, mouse; settings: i.p.
Description: Half an hour after they have received CRL 41 153, the mice (10 per dose, 20 control animals) are subjected to acute hypobaric anoxia [pressure reduction of 600 mm Hg (i.e. about 8×10^4 Pa) in 90 seconds; release of vacuum in 45 seconds] and are then placed in an actimeter, where their motility is recorded for 10 minutes.

[4] = test system: dogs; test: Cardiovascular study in anesthetized dogs; format: in vivo, dog; settings: anesthetized dogs
In short: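 Nembutal-anaesthetized dogs (~14 kg) given CRL 41 194 (n=2) or CRL 41 221 (n=4) intraduodenally at successive 0.1, 0.5, 1, 2.5, 5 and 10 mg/kg doses. Blood pressure, heart rate, femoral and vertebral flow, rectal temperature measured; skin colour observed, plus bile colour (CRL 41 194).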

[5] = test system: gravid White New Zealand female rabbits; test: Teratogenicity in gravid White New Zealand rabbits; format: in vivo, rabbit; settings: day 5 to day 18 of gestation; for Affected foetuses, %: normal limit 1.5%
In short: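 Fetuses harvested by cesarean on gestation day 29 were scored for number and for any malformation (limb blockade, anury, tail or skull defects, exencephaly).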

[6] = test system: mice; test: Interaction with oxotremorine; format: in vivo, mouse; settings: i.p.
Description: CRL 41 153 is administered to groups of 6 mice 0.5 hour before the intraperitoneal injection of 0.5 mg/kg of oxotremorine.

[7] = test system: CNS; test: Neuropsychopharmacological profile as a whole; format: in vivo, mice and rats
Description: (§1) In the neuropsychopharmacological study which follows, a solution of CRL 41 153 in distilled water (pH 1.5) was administered intraperitoneally in a volume of 20 ml/kg to male mice and 5 ml/kg to male rats.

[8] = test system: rats; test: Interaction with apomorphine in rats; format: in vivo, rat; settings: i.p.
Description: CRL 41 153 is administered to groups of 6 rats 0.5 hour before the subcutaneous injection of 0.5 mg/kg of apomorphine.

[9] = test system: rats; test: Overall behavior and reactivities in rats; format: in vivo, rat; settings: i.p.
Description: as §1
(§2) Groups of three animals are observed before and then 0.25 hour, 0.50 hour, 1 hour, 2 hours, 3 hours and 24 hours after the administration of CRL 41 153.

[10] = test system: mice; test: Overall behavior and reactivities in mice; format: in vivo, mouse; settings: i.p.
Description: as §1, §2

[11] = test system: mice; test: Intergroup aggressiveness; format: in vivo, mouse; settings: i.p.
Description: After they have stayed for 3 weeks in the two halves of a cage divided by an opaque partition, groups of 3 mice receive CRL 41 153. Half an hour later, the two groups from the same cage are brought together by removal of the partition, and the number of fights which occur in 10 minutes is noted.

[12] = test system: mice; test: Interaction with barbital; format: in vivo, mouse; settings: i.p., barbital 220 mg/kg
Description: Half an hour after the administration of CRL 41 153, groups of 10 mice receive an intraperitoneal injection of barbital (220 mg/kg).

[13] = test system: mice; test: Interaction with apomorphine in mice; format: in vivo, mouse; settings: i.p.
Description: Groups of 6 mice receive CRL 41 153 0.5 hour before the subcutaneous injection of 1 or 16 mg/kg of apomorphine.

[14] = test system: mice; test: Interaction with reserpine; format: in vivo, mouse; settings: i.p.
Description: Four hours after the intraperitoneal injection of 2.5 mg/kg of reserpine, groups of 6 mice receive CRL 41 153.

[15] = test system: CNS; test: Complementary tests by oral (gastric) administration; format: in vivo
[16] = test system: mice; test: Four plate test, traction and electric shock; format: in vivo, mouse; settings: i.p.
Description: The test is performed on groups of 10 mice 30 minutes after the administration of CRL 41 153.

Question: Which “Motor activity of mice accustomed to their enclosure” value [1] does the source give for `CC(C)NC(C)C(=O)c1ccc(N)cc1` (centres unmarked) [CRL 41 153, 1-(4-aminophenyl)-2-isopropylaminopropanone dihydrochloride] here?
Answer: causes a distinct resumption in the motor activity of mice accustomed to their enclosure

Question: What about the Spontaneous motor activity [2] of the same molecule?
Answer: increases the spontaneous motor activity of mice

Question: And the “Motor recovery of mice after hypobaric hypoxia” value [3]?
Answer: as from a dose of 0.5 mg/kg, CRL 41 153 causes a distinct improvement in the motor recovery

Question: And the “Effect of propanolol or atenolol on the action of the product” value [4]?
Answer: The increase in the femoral and vertebral flows is suppressed by propanolol

Question: What about the “Effects of isoprenaline on the blood pressure” value [4] of the same molecule?
Answer: does not modify the effects of isoprenaline on the blood pressure

Question: And the “Reflex bradycardia caused by hypertension” value [4]?
Answer: The reflex bradycardia caused by hypertension is converted to tachycardia

Question: And the α-adrenergic stimulant effect [4]?
Answer: moderate α-adrenergic stimulant effect

Question: And the “Blood flow through the femoral artery” value ([4]; oral, 2.5 to 5 mg/kg)?
Answer: increases the blood flow through the femoral artery

Question: And the “Blood flow through the vertebral artery” value ([4]; oral, 2.5 to 5 mg/kg)?
Answer: increases the blood flow through the femoral artery and the blood flow through the vertebral artery at doses of 2.5 to 5 mg/kg

Question: And the “Affected foetuses, number” value ([5]; 5 mg/kg daily)?
Answer: 0

Question: What about the “Total foetuses (live)” value ([5]; 5 mg/kg daily) of the same molecule?
Answer: 90

Question: And the “Affected foetuses, %” value ([5]; 5 mg/kg daily)?
Answer: 0%

Question: What about the “Affected foetuses, number” value ([5]; 10 mg/kg daily) of the same molecule?
Answer: 1

Question: What about the “Total foetuses (live)” value ([5]; 10 mg/kg daily) of the same molecule?
Answer: 88

Question: What about the “Affected foetuses, %” value ([5]; 10 mg/kg daily) of the same molecule?
Answer: 1.13%

Question: What about the “Affected foetuses, number” value ([5]; 50 mg/kg daily) of the same molecule?
Answer: 0

Question: And the “Total foetuses (live)” value ([5]; 50 mg/kg daily)?
Answer: 93

Question: What about the “Affected foetuses, %” value ([5]; 50 mg/kg daily) of the same molecule?
Answer: 0%

Question: And the “Effect on hypothermic action of oxotremorine” value [6]?
Answer: at doses of 2 mg/kg, 8 mg/kg and 32 mg/kg, CRL 41 153 opposes the hypothermic action of oxotremorine

Question: And the “Effect on trembling induced by oxotremorine” value [6]?
Answer: at doses of 8 mg/kg and 32 mg/kg, CRL 41 153 partially antagonizes the trembling induced by oxotremorine

Question: And the “Action on the peripheral cholinergic symptoms” value ([6]; oxotremorine)?
Answer: moderate α-adrenergic stimulant effect

Question: And the “Anticonvulsant effects (overall)” value ([7]; conclusion of the tests)?
Answer: anticonvulsant effects: at a high dose

Question: And the “Antidepressant effects (overall)” value ([7]; conclusion of the tests)?
Answer: behaves as an antidepressant for the CNS

Question: What about the “Stimulant effects (overall)” value ([7]; conclusion of the tests) of the same molecule?
Answer: distinct stimulant component

Question: What about the “α-adrenergic stimulant effects (overall)” value ([7]; conclusion of the tests) of the same molecule?
Answer: peripheral α-adrenergic stimulant effects

Question: And the “Peripheral α-adrenergic signs (mydriasis, salivation, lacrimation, exophthalmos)” value ([7]; species and dose not stated)?
Answer: mydriasis (with neither piloerection nor salivation)

Question: And the “Effect on stereotypies induced by apomorphine” value [8]?
Answer: as from a dose of 0.5 mg/kg, CRL 41 153 potentiates the stereotypies induced by apomorphine

Question: And the Observed symptoms ([9]; 0.25 mg/kg)?
Answer: no particular symptoms

Question: And the Observed symptoms ([9]; 1 mg/kg)?
Answer: mydriasis for 1 hour, reaching its maximum value 1 hour after administration

Question: And the “Hyperthermia (maximum temperature change)” value ([9]; 4 mg/kg, 0.5 hour after administration)?
Answer: +1.9 °C

Question: What about the Observed symptoms ([9]; 4 mg/kg, dihydrochloride) of the same molecule?
Answer: excitation 0.5 hour after administration and stereotypies for 2 hours; also recorded: hyperthermia for 3 hours; also recorded: mydriasis for 2 hours, reaching its maximum value 0.5 hour after administration

Question: What about the Observed symptoms ([9]; 16 mg/kg, dihydrochloride) of the same molecule?
Answer: excitation 0.5 hour after administration; also recorded: stereotypies for 3 hours; also recorded: an increase in the fear reaction for 3 hours; also recorded: mydriasis for 3 hours, at a maximum 0.5 hour after administration

Question: What about the Observed symptoms ([10]; 0.5 mg/kg) of the same molecule?
Answer: no particular symptoms

Question: And the Observed symptoms ([10]; 2 mg/kg, dihydrochloride)?
Answer: excitation of low intensity 0.5 hour after administration; also recorded: stereotypies for 1 hour; also recorded: an increase in the fear reaction (for 1 hour) and in the reactivity to touch (2 to 3 hours after administration)

Question: What about the Observed symptoms ([10]; 8 mg/kg, dihydrochloride) of the same molecule?
Answer: excitation for 3 hours; also recorded: an increase in the fear reaction (for 3 hours) and in the reactivity to touch (for 24 hours)

Question: What about the “Hyperthermia (temperature change)” value ([10]; 32 mg/kg, 0.5 hour after administration) of the same molecule?
Answer: +1.1 °C

Question: What about the Observed symptoms ([10]; 32 mg/kg, dihydrochloride) of the same molecule?
Answer: excitation and stereotypies for 3 hours; also recorded: an increase in the fear reaction (for 2 hours) and in the reactivity to touch (for 24 hours); also recorded: moderate mydriasis

Question: What about the “Number of fights / intergroup aggressiveness” value [11] of the same molecule?
Answer: at a dose of 8 mg/kg, CRL 41 153 reduces the number of fights

Question: And the “Duration of the sleep induced by barbital” value [12]?
Answer: reduces the duration of the sleep induced by barbital (total antagonism is obtained at doses of 8 mg/kg and 32 mg/kg)

Question: And the “Time taken to fall asleep (barbital)” value [12]?
Answer: at doses of 0.5 to 32 mg/kg, CRL 41 153 increases the time taken to fall asleep

Question: What about the “Effect on hypothermia induced by apomorphine” value [13] of the same molecule?
Answer: at doses of 2 mg/kg, 8 mg/kg and 32 mg/kg, CRL 41 153 (which is hyperthermic at the said doses) opposes the hypothermia induced by apomorphine

Question: What about the “Effect on righting behavior and stereotypies induced by apomorphine” value [13] of the same molecule?
Answer: without modifying the righting behavior and stereotypy behavior

Question: And the “Effect on hypothermia induced by reserpine” value [14]?
Answer: as from a dose of 0.5 mg/kg, CRL 41 153 strongly opposes tbe hypothermia

Question: And the “Effect on ptosis induced by reserpine” value [14]?
Answer: as from a dose of 0.5 mg/kg, CRL 41 153 strongly opposes tbe hypothermia and ptosis induced by reserpine

Question: What about the “Hypothermia induced by apomorphine” value ([15]; gastric) of the same molecule?
Answer: antagonism of the hypothermia induced by apomorphine

Question: What about the Motility ([15]; gastric) of the same molecule?
Answer: hypermotility

Question: And the “Sleep induced by barbital” value ([15]; gastric)?
Answer: reduction in the sleep induced by barbital

Question: And the “Action on gastric (oral) administration compared with intraperitoneal” value ([15]; gastric vs i.p., dihydrochloride)?
Answer: very active substance; also recorded: same types of action on gastric administration as after intraperitoneal administration

Question: And the minimal effective dose ([15]; po, gastric, read-out: Dose as from which antidepressant and stimulant and/or arousing effects appear)?
Answer: ≥ 4 mg/kg

Question: What about the “Effect on convulsant effects of electric shock” value [16] of the same molecule?
Answer: at high doses, CRL 41 153 antagonizes the convulsant effects of electric shock
